Experimental findings from patent US8541418B2, “Inhibitors of polo-like kinase” (Elan Pharmaceutical, Inc., priority 2009, dated 2013) are described below.

Format in all cases: biochemical
One assay addresses PLK3 (Homo sapiens, UniProt Q9H4B4). Description: PLK TR-FRET peptide assay, PLK3.
The target in a further assay is PLK1 (Homo sapiens, UniProt P53350). Description: PLK TR-FRET peptide assay, PLK1. (In general: Time-resolved FRET reads energy transfer from a long-lived donor to a nearby acceptor.)
Sequence of PLK1 (P53350 whole entry): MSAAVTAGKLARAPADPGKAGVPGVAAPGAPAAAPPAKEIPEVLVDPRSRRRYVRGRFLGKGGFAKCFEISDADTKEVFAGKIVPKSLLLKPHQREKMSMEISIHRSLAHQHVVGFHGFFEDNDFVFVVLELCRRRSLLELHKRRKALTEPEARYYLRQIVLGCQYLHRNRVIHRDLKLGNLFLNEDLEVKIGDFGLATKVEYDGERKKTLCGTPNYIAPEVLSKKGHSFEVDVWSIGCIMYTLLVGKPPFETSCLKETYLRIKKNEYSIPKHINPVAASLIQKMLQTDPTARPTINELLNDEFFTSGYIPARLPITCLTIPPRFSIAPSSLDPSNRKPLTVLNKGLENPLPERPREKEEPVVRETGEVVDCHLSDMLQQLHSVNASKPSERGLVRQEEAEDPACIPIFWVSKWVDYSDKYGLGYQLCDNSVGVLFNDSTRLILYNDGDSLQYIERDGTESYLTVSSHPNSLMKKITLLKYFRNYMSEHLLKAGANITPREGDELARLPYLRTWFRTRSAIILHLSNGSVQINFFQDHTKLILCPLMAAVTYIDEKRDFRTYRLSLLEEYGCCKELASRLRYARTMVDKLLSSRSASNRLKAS
A further assay concerns the target PLK2 (Homo sapiens, UniProt Q9NYY3). Put plainly: PLK TR-FRET peptide assay, PLK2. Conditions: for IC50: PLK TR-FRET peptide assay, read-out: Plk2 IC50; for relative PLK2 activity of the enantiomers: compared with the opposite enantiomer.
The mark [1] stands for this setting: GST-PLK3, 15 min reaction, read-out: Plk3 IC50.

Where two headings read alike, the source gives them in different places.

Sequence of PLK2 (Q9NYY3 whole entry): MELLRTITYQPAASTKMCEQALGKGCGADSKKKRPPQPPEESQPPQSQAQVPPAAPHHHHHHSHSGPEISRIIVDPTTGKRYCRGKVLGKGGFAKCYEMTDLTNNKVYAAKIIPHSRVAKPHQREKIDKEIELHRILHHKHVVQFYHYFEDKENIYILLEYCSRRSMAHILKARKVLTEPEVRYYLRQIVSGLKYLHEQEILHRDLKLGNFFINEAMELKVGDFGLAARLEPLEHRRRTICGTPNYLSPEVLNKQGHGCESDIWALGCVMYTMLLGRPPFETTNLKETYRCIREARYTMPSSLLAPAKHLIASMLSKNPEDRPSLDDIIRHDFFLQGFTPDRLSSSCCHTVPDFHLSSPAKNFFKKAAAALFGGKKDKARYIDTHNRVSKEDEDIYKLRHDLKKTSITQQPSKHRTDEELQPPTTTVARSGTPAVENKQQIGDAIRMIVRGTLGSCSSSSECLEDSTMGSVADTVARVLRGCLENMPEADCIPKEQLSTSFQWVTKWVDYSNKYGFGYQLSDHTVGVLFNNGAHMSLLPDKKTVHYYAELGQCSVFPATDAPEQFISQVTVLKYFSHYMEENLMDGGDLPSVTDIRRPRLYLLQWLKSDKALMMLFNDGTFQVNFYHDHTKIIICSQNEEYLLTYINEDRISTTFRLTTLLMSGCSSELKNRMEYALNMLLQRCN
Sequence of PLK3 (Q9H4B4 whole entry): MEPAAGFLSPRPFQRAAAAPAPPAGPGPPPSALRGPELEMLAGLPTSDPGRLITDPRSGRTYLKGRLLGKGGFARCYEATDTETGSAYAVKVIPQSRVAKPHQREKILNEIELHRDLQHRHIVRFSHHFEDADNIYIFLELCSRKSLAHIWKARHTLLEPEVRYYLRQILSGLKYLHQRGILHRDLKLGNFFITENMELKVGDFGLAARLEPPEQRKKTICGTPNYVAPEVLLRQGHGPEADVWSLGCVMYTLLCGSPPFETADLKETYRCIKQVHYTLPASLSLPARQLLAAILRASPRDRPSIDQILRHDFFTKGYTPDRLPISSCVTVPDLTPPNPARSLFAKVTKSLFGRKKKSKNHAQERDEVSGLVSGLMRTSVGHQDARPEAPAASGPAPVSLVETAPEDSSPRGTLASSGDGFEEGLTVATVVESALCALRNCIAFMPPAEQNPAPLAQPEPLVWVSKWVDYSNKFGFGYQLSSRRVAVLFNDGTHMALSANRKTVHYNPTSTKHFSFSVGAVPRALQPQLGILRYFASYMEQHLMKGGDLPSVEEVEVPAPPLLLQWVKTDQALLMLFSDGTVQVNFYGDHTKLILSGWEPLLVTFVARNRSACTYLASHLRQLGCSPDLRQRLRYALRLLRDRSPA

With `CC[C@@H]1C(=O)N(C)c2cnc(-n3cnc(-c4nccs4)c3)nc2N1C1CCCC1` [Example 60, (R)-8-cyclopentyl-7-ethyl-5-methyl-2-(4-(thiazol-2-yl)-1H-imidazol-1-yl)-7,8-dihydropteridin-6(5H)-one], the concentration for half-maximal inhibition (IC50) was 1 to 10 µM at PLK3 (setting [1]); < 1 µM at PLK1 (GST-PLK1, 60 min reaction); < 1 µM at PLK2 (GST-PLK2, 60 min reaction).
`[2H]C([2H])([2H])N1C(=O)[C@@H](C([2H])([2H])C([2H])([2H])[2H])N(C([2H])(C([2H])([2H])[2H])C([2H])([2H])[2H])c2nc(-n3ccnc3-c3ccc(F)cc3)ncc21` [Example 200, (R)-7-perdeuteroethyl-2-(2-(4-fluorophenyl)-1H-imidazol-1-yl)-8-perdeuteroisopropyl-5-trideuteromethyl-7,8-dihydropteridin-6(5H)-one]: the half-maximal inhibitory concentration (IC50) is 1 to 10 µM at PLK3 (setting [1]); 1 to 10 µM on PLK1 (GST-PLK1, 60 min reaction); < 1 µM at PLK2 (GST-PLK2, 60 min reaction). For the same molecule, the “relative PLK2 activity of the enantiomers” value on PLK2 is on record as “more active compound”.
Turning to `CC[C@@H]1C(=O)N(C)c2cnc(-c3cn[nH]c3-c3ccc(F)cc3F)nc2N1C(C)C` [Example 312, (R)-2-(5-(2,4-difluorophenyl)-1H-pyrazol-4-yl)-7-ethyl-8-isopropyl-5-methyl-7,8-dihydropteridin-6(5H)-one], the IC50 was < 1 µM on PLK3 (setting [1]); < 1 µM on PLK1 (GST-PLK1, 60 min reaction); < 1 µM at PLK2 (GST-PLK2, 60 min reaction).
As to `[2H]C([2H])([2H])N1C(=O)C(C([2H])([2H])C([2H])([2H])[2H])N(C([2H])(C([2H])([2H])[2H])C([2H])([2H])[2H])c2nc(-n3ccnc3-c3ccc(F)cc3)ncc21` (racemic) [Example 162, 7-perdeuteroethyl-2-(2-(4-fluorophenyl)-1H-imidazol-1-yl)-8-perdeuteroisopropyl-5-trideuteromethyl-7,8-dihydropteridin-6(5H)-one], the IC50 at PLK3 (setting [1]) is 1 to 10 µM; at PLK1 (GST-PLK1, 60 min reaction) it was 1 to 10 µM; at PLK2 (GST-PLK2, 60 min reaction), < 1 µM.
As for `CC(C)N1c2nc(-n3ccnc3-c3ccccc3)ncc2N(C)C(=O)C12CCC2` [Example 289, 8′-isopropyl-5′-methyl-2′-(2-phenyl-1H-imidazol-1-yl)-5′H-Spiro[cyclobutane-1,7′-pteridin]-6′(8′H)-one], the IC50 on PLK3 (setting [1]) was 10 to 50 µM; on PLK1 (GST-PLK1, 60 min reaction), 1 to 10 µM; on PLK2 (GST-PLK2, 60 min reaction) it was < 1 µM.
The corresponding values for `CC[C@@H]1C(=O)N(C)c2cnc(-c3ccncc3CNC(=O)c3ccccc3)nc2N1C1CCCC1` [Example 123, (R)—N-((4-(8-cyclopentyl-7-ethyl-5-methyl-6-oxo-5,6,7,8-tetrahydropteridin-2-yl)pyridin-3-yl)methyl)benzamide] are > 50 µM, 10 to 50 µM and 10 to 50 µM.
The corresponding values for `CC[C@@H]1C(=O)N(C)c2cnc(-c3ccncc3NC(=O)CC(C)(C)C)nc2N1C(C)C` [Example 103, (R)—N-(4-(7-ethyl-8-isopropyl-5-methyl-6-oxo-5,6,7,8-tetrahydropteridin-2-yl)pyridin-3-yl)-3,3-dimethylbutanamide] are 10 to 50 µM, 10 to 50 µM and 10 to 50 µM.
The corresponding values for `CC[C@@]12CCC(=O)N1c1nc(-n3ccnc3)ncc1N(C)C2=O` [Example 311, (S)-6a-ethyl-2-(1H-imidazol-1-yl)-5-methyl-7,8-dihydropyrrolo[2,1-h]pteridine-6,9(5H,6aH)-dione] are > 50 µM, > 50 µM and > 50 µM.
Consider `CC[C@@H]1CC[C@@]2(CC)C(=O)N(C)c3cnc(-c4cn[nH]c4-c4nccs4)nc3N12` [Example 340, (6aS,9R)-6a,9-diethyl-5-methyl-2-(5-(thiazol-2-yl)-1H-pyrazol-4-yl)-6a,7,8,9-tetrahydropyrrolo[2,1-h]pteridin-6(5H)-one], for which the IC50 on PLK3 (setting [1]) was 1 to 10 µM; at PLK1 (GST-PLK1, 60 min reaction), < 1 µM; on PLK2 (GST-PLK2, 60 min reaction) it was < 1 µM.
`CC[C@@H]1C(=O)N(C)c2cnc(-c3ccncc3NC(=O)c3ccccc3)nc2N1C(C)C` [Example 104, (R)—N-(4-(7-ethyl-8-isopropyl-5-methyl-6-oxo-5,6,7,8-tetrahydropteridin-2-yl)pyridin-3-yl)benzamide]: the 50% inhibitory concentration (IC50) on PLK3 (setting [1]) was 1 to 10 µM; on PLK1 (GST-PLK1, 60 min reaction) it was 1 to 10 µM; at PLK2 (GST-PLK2, 60 min reaction) it was < 1 µM.
For the molecule `CC[C@@H]1C(=O)N(C)c2cnc(-n3ccnc3C(F)(F)F)nc2N1C1CCCC1` [Example 352, (R)-8-cyclopentyl-7-ethyl-5-methyl-2-(2-(trifluoromethyl)-1H-imidazol-1-yl)-7,8-dihydropteridin-6(5H)-one], the IC50 was 1 to 10 µM at PLK3 (setting [1]); 1 to 10 µM on PLK1 (GST-PLK1, 60 min reaction); < 1 µM on PLK2 (GST-PLK2, 60 min reaction).
`CC[C@@H]1C(=O)N(C)c2cnc(-n3ccnc3-c3cc(Cl)cc(Cl)c3)nc2N1C1CCC1` [Example 198, (R)-8-cyclobutyl-2-(2-(3,5-dichlorophenyl)-1H-imidazol-1-yl)-7-ethyl-5-methyl-7,8-dihydropteridin-6(5H)-one]: the concentration for half-maximal inhibition (IC50) on PLK3 (setting [1]) was 1 to 10 µM; on PLK1 (GST-PLK1, 60 min reaction) it was 1 to 10 µM; at PLK2 (GST-PLK2, 60 min reaction) it was < 1 µM.
`CC[C@@H]1C(=O)N(C)c2cnc(-c3ccncc3-c3ccccc3)nc2N1C1CC1` [Example 142, (R)-8-cyclopropyl-7-ethyl-5-methyl-2-(3-phenylpyridin-4-yl)-7,8-dihydropteridin-6(5H)-one]: the IC50 is 10 to 50 µM at PLK3 (setting [1]); 10 to 50 µM on PLK1 (GST-PLK1, 60 min reaction); < 1 µM on PLK2 (GST-PLK2, 60 min reaction).
Take `CC[C@@H]1C(=O)N(C)c2cnc(-c3cnoc3-c3ccc(F)cc3)nc2N1C(C)C` [Example 173, (R)-7-ethyl-2-(5-(4-fluorophenyl)isoxazol-4-yl)-8-isopropyl-5-methyl-7,8-dihydropteridin-6(5H)-one]: the half-inhibitory concentration (IC50) at PLK3 (setting [1]) is 10 to 50 µM; against PLK1 (GST-PLK1, 60 min reaction), 1 to 10 µM; at PLK2 (GST-PLK2, 60 min reaction), < 1 µM.
Turning to `CCC12CCCCCN1c1nc(-n3nccc3-c3ccccc3)ncc1N(C)C2=O` (centres unmarked) [Example 209, 6a-ethyl-5-methyl-2-(5-phenyl-1H-pyrazol-1-yl)-6a,7,8,9,10,11-hexahydroazepino[2,1-h]pteridin-6(5H)-one], the IC50 lay in the range of 10 to 50 µM at PLK3 (setting [1]); 10 to 50 µM against PLK1 (GST-PLK1, 60 min reaction); 1 to 10 µM at PLK2 (GST-PLK2, 60 min reaction).
As to `[2H]C([2H])([2H])N1C(=O)C(C([2H])([2H])C([2H])([2H])[2H])N(C([2H])(C([2H])([2H])[2H])C([2H])([2H])[2H])c2nc(-n3ccnc3-c3nccs3)ncc21` (centres unmarked) [Example 158, 7-perdeuteroethyl-8-perdeuteroisopropyl-5-trideuteromethyl-2-(2-(thiazol-2-yl)-1H-imidazol-1-yl)-7,8-dihydropteridin-6(5H)-one], the half-maximal inhibitory concentration (IC50) on PLK3 (setting [1]) was 10 to 50 µM; on PLK1 (GST-PLK1, 60 min reaction), 1 to 10 µM; on PLK2 (GST-PLK2, 60 min reaction), < 1 µM.
The corresponding values for `CC[C@@]12CCCN1c1nc(-n3ccnc3-c3ccc(Cl)s3)ncc1N(C)C2=O` [Example 218, (S)-2-(2-(5-chlorothiophen-2-yl)-1H-imidazol-1-yl)-6a-ethyl-5-methyl-6a,7,8,9-tetrahydropyrrolo[2,1-h]pteridin-6(5H)-one] are 10 to 50 µM, 10 to 50 µM and < 1 µM.
Taken in the same sequence, the figures for `CC[C@@H]1C(=O)N(C)c2cnc(-n3ccnc3-c3ccc(F)c(Cl)c3)nc2N1C1CCOC1` (stereo partly drawn) [Example 232, (7R)-2-(2-(3-chloro-4-fluorophenyl)-1H-imidazol-1-yl)-7-ethyl-5-methyl-8-(tetrahydrofuran-3-yl)-7,8-dihydropteridin-6(5H)-one] were 1 to 10 µM, 1 to 10 µM and < 1 µM.
For the molecule `CC[C@@]12CCCCN1c1nc(-n3ccnc3)ncc1N(C)C2=O` [Example 286, (S)-6a-ethyl-2-(1H-imidazol-1-yl)-5-methyl-7,8,9,10-tetrahydro-5H-pyrido[2,1-h]pteridin-6(6aH)-one], the IC50 is > 50 µM at PLK3 (setting [1]); > 50 µM at PLK1 (GST-PLK1, 60 min reaction); 1 to 10 µM at PLK2 (GST-PLK2, 60 min reaction). The “relative PLK2 activity of the enantiomers” value at PLK2 is listed as “more active compound”.
As to `CC[C@H]1C(=O)N(C)c2cnc(-c3cn[nH]c3-c3nccs3)nc2N1c1ccc(Cl)cc1` [Example 383, (S)-8-(4-chlorophenyl)-7-ethyl-5-methyl-2-(5-(thiazol-2-yl)-1H-pyrazol-4-yl)-7,8-dihydropteridin-6(5H)-one], the IC50 was > 50 µM on PLK3 (GST-PLK3, read-out: Plk3 IC50); 10 to 50 µM against PLK1 (GST-PLK1); 1 to 10 µM on PLK2 (GST-PLK2).
Take `[2H]C([2H])([2H])N1C(=O)C(C([2H])([2H])C([2H])([2H])[2H])N(C([2H])(C([2H])([2H])[2H])C([2H])([2H])[2H])c2nc(-n3ccnc3-c3cc(F)cc(F)c3)ncc21` (racemic) [Example 163, 2-(2-(3,5-difluorophenyl)-1H-imidazol-1-yl)-7-perdeuteroethyl-8-perdeuteroisopropyl-5-trideuteromethyl-7,8-dihydropteridin-6(5H)-one]: the IC50 at PLK3 (setting [1]) was 10 to 50 µM; on PLK1 (GST-PLK1, 60 min reaction) it was < 1 µM; at PLK2 (GST-PLK2, 60 min reaction), < 1 µM.
As to `CC[C@@H]1C(=O)N(C)c2cnc(-n3ccnc3-c3nccs3)nc2N1C1CCC1` [Example 156, (R)-8-cyclobutyl-7-ethyl-5-methyl-2-(2-(thiazol-2-yl)-1H-imidazol-1-yl)-7,8-dihydropteridin-6(5H)-one], the IC50 on PLK3 (setting [1]) was 1 to 10 µM; on PLK1 (GST-PLK1, 60 min reaction) it was 1 to 10 µM; at PLK2 (GST-PLK2, 60 min reaction), < 1 µM.
As to `CC[C@@H]1C(=O)N(C)c2cnc(-n3ccnc3C3CC3)nc2N1C1CCCC1` [Example 288, (R)-8-cyclopentyl-2-(2-cyclopropyl-1H-imidazol-1-yl)-7-ethyl-5-methyl-7,8-dihydropteridin-6(5H)-one], the IC50 at PLK3 (setting [1]) is 1 to 10 µM; against PLK1 (GST-PLK1, 60 min reaction), 1 to 10 µM; on PLK2 (GST-PLK2, 60 min reaction) it was < 1 µM.

By IC50 is commonly meant the concentration needed to halve the response being measured.
